The test system of this test is perceived sweet intensity (panelists). Briefly: Sensory time-intensity (TI) measurement of sweetness by a trained panel. Type of test: in vivo, human. Conditions: for AUC of time-intensity curve / lingering (intensity at 90 sec) / onset (time-point of first maximum intensity) / max. int. (maximum sweet intensity): lactisole alone, mean ± SEM; for AUC of time-intensity curve: 180 sec evaluation; for max. int. (maximum sweet intensity): unstructured scale 0-100. The text has this:
All panelists gave their written informed consent for participating in the panel and had to complete a sensory training. […] On a last training day, the evaluation on unstructured scales and the time-dependent evaluation on the computer were trained. All panelists reported to be in good general health condition, and not being under medication or pregnant. At least one hour before every training or tasting, panelists were instructed not to smoke and not to consume intense tasting food or beverage (e.g. coffee, chili, garlic, chewing gum) and to avoid in general strong hunger or fullness as well as strong odors or perfume on test days.
Every test solution was assessed randomly at two different test days with at least 8 panelists participating per replicate. The panelists were free to choose to participate at the different test days. A maximum of five test compounds were assessed in one session. All samples were coded with three-digit random code and presented to the panelists in randomized order. On each test day, panelists were presented five sweet solutions with 0, 25, 50, 100 and 200 g/L sucrose as a scale training for the ratings from “not at all” to “very intensive” sweetness. […] The three minutes of evaluation were chosen to capture as much of the lingering as possible without wearing out the panelists during the evaluation. A total of 350 measuring time points was recorded within the pre-set time frame, especially to see differences in the first seconds of evaluation, which are important for the onset. The panelists were asked to take the sample (20 mL) into their mouth, while starting the timer and simultaneously the evaluation of sweet intensity over the time, and to spit out the sample after ten seconds while continuing the evaluation of the sweetness intensity until the end of the three minutes.
For comparison of the time-dependent properties, the following descriptors were used: the maximum intensity at the first 30 sec of evaluation as “max. intensity”, the time-point of the first maximum intensity as “onset” in sec, […], and the area under the curve from the time-intensity plots as “AUC” as a marker for the overall intensity and duration.
All sensory experiments were conducted at the Christian Doppler Laboratory for Taste Research at the Institute for Physiological Chemistry, University of Vienna, Austria, at room temperature (21 – 23 °C). • Calcium mobilization assay
The statistical analysis and graphical representation were performed with GraphPad Prism 9.0 for sensory results and with SigmaPlot 14.0 for cell experiments. To evaluate the sensory dose–response effects of ascending sweetener concentration w/o lactisole, an asymmetrical five-parameter curve (Richard́s five-parameter dose–response curve) was fitted. The data are presented as means ± SEM from at least 16 single evaluations. Statistical significance between the different test compounds and concentration-dependent effects was assessed by two-way ANOVAs with Tukey post hoc test using Graph Pad Prism. The normal distribution of the data sets was checked by evaluation of the kurtosis (between −7 to + 7) and the skewness (between −3 to + 3). Equal variance was tested using Levenés test. In case the assumptions of a normal distribution and equal variance were not met, the non-parametric ANOVA on ranks (Kruskal-Wallis Test) with Dunn's post-hoc test without the calculation of interaction was applied. A Pearson product moment correlation was conducted to investigate relationships between sensory results and cell responses of the tested sweeteners.

For `COc1ccc(OC(C)C(=O)O)cc1` (stereo not drawn) [lactisole, sodium 2-(4-methoxyphenoxy) propanoate], the “time after which a sweet perception (sweet aftertaste) was reported” value (lactisole 0.46 mM and 0.92 mM, sip-and-spit, spit out after ten seconds) is listed as “around 30 sec”. Besides, for the setting “0.46 mM”, the “AUC of time-intensity curve” value worked out at 4285 ± 926, the “lingering (intensity at 90 sec)” value was 16.96 ± 3.9, the “onset (time-point of first maximum intensity)” value was 106.0 ± 19.8 s and the “max. int. (maximum sweet intensity)” value turned out to be 23.3 ± 4.0. Moreover, under “0.92 mM”, the “AUC of time-intensity curve” value stood at 5990 ± 1122, the “lingering (intensity at 90 sec)” value is 21.12 ± 3.8, the “onset (time-point of first maximum intensity)” value came to 144.9 ± 21.9 s and the “max. int. (maximum sweet intensity)” value worked out at 29.8 ± 4.2.

The values are drawn from publication PMC9532755, “Impact of lactisole on the time-intensity profile of selected sweeteners in dependence of the binding site” (Food Chemistry: X, 2022).
